The test system of assay [1] is methanogenesis in rumen liquor. In words: In vitro test for methane production (modified Hohenheim Forage value Test). Type of assay: cell-based. To be noted: for inhibition at 0.5 % / inhibition at 2 % / inhibition at 0.005 % / inhibition at 0.01 % / inhibition at 0.05 % / inhibition at 0.1 % / inhibition at 1 %: read-out: effect on methanogenesis (%).
Assay [2] deals with methane production of dairy cows. More on the design: species or system Holstein X Friesian dairy cows. To be noted: in vivo.
The test system of assay [3] is total bacteria (16S rRNA). In kind it is in vivo, sheep.
Assay [4] deals with methanogenic archaea (mcrA gene). In kind it is in vivo, sheep.
Assay [5] has as its system volatile fatty acid profile and ammonia N concentration in the rumen. Type of assay: in vivo, sheep.
For assay [6], the system named is methane emissions by sheep. In kind it is in vivo.
A further assay deals with protozoa (18S rRNA). In kind it is in vivo, sheep.
Setting [7] is: 8 h, comparative example, 0.1% DM, average of two experiments.
The mark [8] stands for this setting: rumen of sheep, 16S rRNA qPCR, 100 mg per animal and day.
Setting [9] is: rumen of sheep, 100 mg per animal and day.
Setting [10] is: rumen of sheep, mcrA gene qPCR, 100 mg per animal and day.
Setting [11] is: rumen of sheep, samples of days 29 and 30, 100 mg per animal and day.
Setting [12] is: sheep, 100 mg per animal and day via ruminal cannula, day 14.
Setting [13] is: sheep, 100 mg per animal and day via ruminal cannula, day 29.
Setting [14] is: sheep, 100 mg per animal and day via ruminal cannula, day 30.
Setting [15] is: sheep, 100 mg per animal and day via ruminal cannula, days 29-30 pooled.
The mark [16] stands for this setting: rumen of sheep, 18S rRNA qPCR, 100 mg per animal and day.

SMILES strings stand for the structures. Several values for one entry are separate records, joined by “and”; a condition that tells them apart may be missing. Equal entries are not always repeated. Where two headings read alike, the source gives them in different places. Marks after values point to notes of the source that are not given here.

Consider `O=[N+]([O-])OCC(CCc1ccccc1)O[N+](=O)[O-]` (racemic) [Compound 2, rac-4-Phenylbutane-1,2-diyl dinitrate], for which, in assay [1] (8 h), the inhibition at 0.5 % came out at 4% and the inhibition at 2 % turned out to be 10%.
On to `CCC(=O)OCCCO[N+](=O)[O-]` [Compound 7, 3-Nitrooxy-propyl propionate], for which, in assay [1] (8 h), the inhibition at 0.005 % was 6%, the inhibition at 0.01 % stood at 21%, the inhibition at 0.05 % came out at 100% and the inhibition at 0.1 % worked out at 100%.
`CCNS(=O)(=O)CCCO[N+](=O)[O-]` [Compound 4, N-Ethyl-3-nitrooxy-propionic sulfonyl amide]: in assay [1] (8 h), the inhibition at 0.05 % is 10%, the inhibition at 0.1 % is 24%, the inhibition at 0.5 % is 99% and the inhibition at 2 % came to 99%.
Turning to `O=[N+]([O-])[O-].[Na+]` [Na NO3, reference compound], the “effect on methanogenesis (%)” value in assay [1] (comparative example, 0.5% DM, average of two experiments) was found to be 2%; in assay [1] (comparative example, 2% DM, average of two experiments), 23%.
`O=C(OCCCO[N+](=O)[O-])c1ccccc1` [Compound 11, 3-Nitrooxy-propyl benzoate]: in assay [1] (8 h), the inhibition at 0.01 % stood at 11%, the inhibition at 0.1 % was 99% and the inhibition at 1 % was found to be 99%.
`O=[N+]([O-])OCCCO` [Compound 1, 3-Nitrooxypropanol]: in assay [2], the “CH4, L/d” value is 555 L/day and 536 L/day; the “CH4, L/kg DMI” value is 29.9 L/kg DMI and 29.2 L/kg DMI; the “CH4, g/d” value is 398 g/day and 384 g/day. For the same molecule, in assay [3] (in vivo), the Total bacteria was 9.74 * 10^10 copy gene numbers/g fresh matter and the “Total bacteria log 10” value is recorded as 11.0 log copy gene numbers/g fresh matter. Moreover, in assay [1] (8 h), the inhibition at 0.005 % was found to be 20%, the inhibition at 0.01 % is 79%, the inhibition at 0.05 % stood at 100% and the inhibition at 0.1 % stood at 100%. Also, in assay [1] (8 h), the inhibition at 0.5 % was determined as 100% and the inhibition at 2 % was determined as 100%. Moreover, in assay [4] (in vivo), the Archaea is reported as 2.86 * 10^8 copy gene numbers/g fresh matter, the “Archaea log 10” value is on record as 8.34 log copy gene numbers/g fresh matter and the “Archaea ΔCt (relative abundance in relation to total bacteria)” value came out at 0.020. Moreover, in assay [5] (in vivo), the Acetate is reported as 64.5^a mol/100 mol, the Butirate was 2.11 mol/100 mol, the “C2/C3 (acetate to propionate ratio)” value is recorded as 3.89^a and the Propionate is reported as 17.5^b mol/100 mol. In assay [5] (in vivo), the “Total (volatile fatty acids)” value came out at 57.1, the Valerate is 1.82 mol/100 mol and the iso-valerate turned out to be 1.82 mol/100 mol. In assay [6] (in vivo), the “CH4 l, day” value is 18.3 l, day and 19.7 l, day and 19.1 l, day and 20.0 l, day; the CH4 l/kg intake is 22.5 and 19.6 and 25.6 and 23.1; the “reduction of methane emissions (liters per kg of fresh matter intake) against the control” value is 23%. Also, in the assay with protozoa (18S rRNA) (in vivo), the Total protozoa is given as 2.51 * 10^10 copy gene numbers/g fresh matter, the “Total protozoa log 10” value is recorded as 10.2 log copy gene numbers/g fresh matter and the “Total protozoa ΔCt (relative abundance in relation to total bacteria)” value is on record as 1.55.
Take `O=[N+]([O-])OCc1ccccc1` [Compound 14, Benzylnitrate]: in assay [1] (8 h), the inhibition at 0.05 % is 3%, the inhibition at 0.1 % is 37%, the inhibition at 0.5 % came to 100% and the inhibition at 2 % worked out at 100%.
Take `CCCCCC(=O)OCCCO[N+](=O)[O-]` [Compound 12, 3-Nitrooxy-propyl hexanoate]: in assay [1] (8 h), the inhibition at 0.01 % turned out to be 42%, the inhibition at 0.1 % was determined as 99% and the inhibition at 1 % is 98%.
As to `O=C(NCCO[N+](=O)[O-])c1cccnc1` [Compound 16, N-[2-(Nitrooxy)ethyl]-3-pyridinecarboxamide], the inhibition at 1 % in assay [1] (1% DM, reduction in methane vs control, 8 hours at 39° C., average of two experiments) came to 100%.
`O=[N+]([O-])CCCO` [reference compound]: the inhibition at 0.1 % in assay [1] (setting [7]) came out at 2%.
With `COCCCO` [reference compound], in assay [1] (setting [7]), the inhibition at 0.1 % was 8%.
On to `CCOC(=O)CCO` [reference compound], for which the inhibition at 0.1 % in assay [1] (setting [7]) worked out at 6%.
On to `CCOC(=O)CCO[N+](=O)[O-]` [Additive 1, ethyl-3-nitrooxypropionate, reference compound], for which, in assay [3] (setting [8]), the Total bacteria is 9.08 * 10^10 copy gene numbers/g fresh matter and the “Total bacteria log 10” value is recorded as 10.9 log copy gene numbers/g fresh matter. Moreover, the “Archaea ΔCt (relative abundance in relation to total bacteria)” value in assay [4] (setting [9]) was found to be 0.022. Besides, in assay [4] (setting [10]), the Archaea is recorded as 2.86 * 10^8 copy gene numbers/g fresh matter and the “Archaea log 10” value is 8.45 log copy gene numbers/g fresh matter. Moreover, in assay [5] (setting [11]), the Acetate was 67.5^b mol/100 mol, the Butirate was 2.05 mol/100 mol, the “C2/C3 (acetate to propionate ratio)” value is 4.09^a and the Propionate is 16.6^a mol/100 mol. Further, in assay [5] (setting [11]), the “Total (volatile fatty acids)” value is 58.2, the Valerate is listed as 1.94 mol/100 mol, the iso-butirate is on record as 10.1 mol/100 mol and the iso-valerate was 1.79 mol/100 mol. In assay [6] (setting [12]), the “CH4 l, day” value is listed as 21.9 l, day and the CH4 l/kg intake is 25.6 l/kg intake. In addition, in assay [6] (setting [13]), the “CH4 l, day” value is recorded as 20.9 l, day and the CH4 l/kg intake stood at 21.7 l/kg intake. In assay [6] (setting [14]), the “CH4 l, day” value was 21.8 l, day and the CH4 l/kg intake amounted to 23.2 l/kg intake. In assay [6] (setting [15]), the “CH4 l, day” value is recorded as 21.5 l, day and the CH4 l/kg intake turned out to be 22.6 l/kg intake. In assay [6] (sheep, 100 mg per animal and day, day 14), the “reduction of methane emissions (liters per kg of fresh matter intake) against the control” value came to 14%. For the same molecule, the “Total protozoa ΔCt (relative abundance in relation to total bacteria)” value with protozoa (18S rRNA) (setting [9]) amounted to 1.58. In addition, in the assay on protozoa (18S rRNA) (setting [16]), the Total protozoa is reported as 1.87 * 10^10 copy gene numbers/g fresh matter and the “Total protozoa log 10” value is recorded as 10.2 log copy gene numbers/g fresh matter.
